# Results as given in patent publication US20250320226.
# Read-outs that look alike come from different tables or passages of the source.
compound,measurement,setting,value
C[C@@H]1C/C=C\CCC(OCc2ccccc2)(C(F)(F)F)C2=NN=C(O2)c2nc(c(C(F)(F)F)cc2NC(=O)OC(C)(C)C)O1 (stereo partly drawn),"ring closure, isolated yield","from C[C@H](CC[P+](c1ccccc1)(c1ccccc1)c1ccccc1)Oc1nc(-c2nnc(C(CCC=O)(OCc3ccccc3)C(F)(F)F)o2)c(N(C(=O)OC(C)(C)C)C(=O)OC(C)(C)C)cc1C(F)(F)F, other bond, 14-membered ring, NaOtBu, THF, 11.2 mM",50%
"tert-Butyl ((4R,10R)-10-(benzyloxy)-4-methyl-25,10-bis(trifluoromethyl)-3-oxa-1(2,5)-oxadiazola-2(2,6)-pyridinacyclodecaphane-23-yl)carbamate","ring closure, isolated yield","ether bond, 14-membered ring, PPh3/DIAD, toluene, 30.2 mM",52%
C[C@H]1CCCCC[C@](O)(C(F)(F)F)C(=O)NNC(=O)c2nc(c(C(F)(F)F)cc2NC(=O)OC(C)(C)C)O1,"ring closure, isolated yield","from C[C@@H](CCCCC[C@@](O)(C(=O)O)C(F)(F)F)Oc1nc(C(=O)NN)c(NC(=O)OC(C)(C)C)cc1C(F)(F)F, amide bond, 15-membered ring, HATU/DIEA, DMF (DIEA added in 2-MeTHF), 21.9 mM",15%
